Results reported in ChEMBL document CHEMBL5257017, “Small Molecule CXCR3 Antagonists” (J Med Chem, 2016).
Converted amounts (≈) assume the structure as drawn.

Assays:
[1] = target: T1, hERG (KCNH2) (Homo sapiens, UniProt Q12809); test: Inhibition of hERG at 10 uM relative to control; assay type: toxicity
[2] = target: T2, C-X-C chemokine receptor type 3 (Homo sapiens, UniProt P49682); test: Displacement of [125I]-CXCL10 from CXCR3 in human PBMC cells; assay type: cell-based
T2 sequence (P49682 whole entry): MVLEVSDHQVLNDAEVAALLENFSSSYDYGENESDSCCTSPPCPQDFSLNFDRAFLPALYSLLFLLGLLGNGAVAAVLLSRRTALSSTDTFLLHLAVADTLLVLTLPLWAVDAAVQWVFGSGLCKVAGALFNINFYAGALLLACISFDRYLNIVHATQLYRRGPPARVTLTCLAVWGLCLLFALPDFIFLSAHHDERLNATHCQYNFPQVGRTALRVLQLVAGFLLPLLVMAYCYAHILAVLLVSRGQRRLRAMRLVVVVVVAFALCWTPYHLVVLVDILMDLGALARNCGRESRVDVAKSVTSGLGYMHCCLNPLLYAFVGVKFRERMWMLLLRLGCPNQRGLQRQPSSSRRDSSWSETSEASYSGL

[3] = AUC in mouse at 10 mg/kg, po; assay type: ADME, organism-based; parameters: dose 10 mg/kg, route po; details: in vivo
[4] = target: T2, C-X-C chemokine receptor type 3; test: Antagonist activity at CXCR3 (unknown origin) assessed as reduction in CXCL10 induced calcium flux by flow cytometry
[5] = target: T2, C-X-C chemokine receptor type 3; test: Antagonist activity at CXCR3 (unknown origin) assessed as reduction in CXCL10 induced calcium flux by [35S]GTPgammaS binding assay
[6] = target: T2, C-X-C chemokine receptor type 3; test: Antagonist activity at CXCR3 (unknown origin) assessed as reduction in CXCL11 induced calcium flux by FLIPR method
[7] = target: T2, C-X-C chemokine receptor type 3; test: Antagonist activity at CXCR3 (unknown origin) assessed as reduction in CXCL10 induced calcium flux by FLIPR method
[8] = target: T2, C-X-C chemokine receptor type 3; test: Antagonist activity at CXCR3 (unknown origin)
[9] = target: T3, C-X-C chemokine receptor type 2 (Homo sapiens, UniProt P25025); test: Antagonist activity at CXCR2 (unknown origin)
T3 sequence (P25025 whole entry): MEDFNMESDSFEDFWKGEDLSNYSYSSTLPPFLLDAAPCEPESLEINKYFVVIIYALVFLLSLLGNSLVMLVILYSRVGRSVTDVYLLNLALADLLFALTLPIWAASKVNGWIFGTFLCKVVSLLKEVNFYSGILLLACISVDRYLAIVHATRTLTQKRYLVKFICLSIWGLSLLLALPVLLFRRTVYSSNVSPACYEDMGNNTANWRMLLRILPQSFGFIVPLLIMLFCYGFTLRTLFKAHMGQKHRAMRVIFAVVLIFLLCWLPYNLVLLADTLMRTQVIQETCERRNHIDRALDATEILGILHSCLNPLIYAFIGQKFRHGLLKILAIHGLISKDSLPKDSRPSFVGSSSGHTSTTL

[10] = target: C-C chemokine receptor type 4 (Homo sapiens) (UniProt P51679); test: Antagonist activity at CCR4 (unknown origin)
Chain of C-C chemokine receptor type 4 (Homo sapiens) (P51679 whole entry, looked up): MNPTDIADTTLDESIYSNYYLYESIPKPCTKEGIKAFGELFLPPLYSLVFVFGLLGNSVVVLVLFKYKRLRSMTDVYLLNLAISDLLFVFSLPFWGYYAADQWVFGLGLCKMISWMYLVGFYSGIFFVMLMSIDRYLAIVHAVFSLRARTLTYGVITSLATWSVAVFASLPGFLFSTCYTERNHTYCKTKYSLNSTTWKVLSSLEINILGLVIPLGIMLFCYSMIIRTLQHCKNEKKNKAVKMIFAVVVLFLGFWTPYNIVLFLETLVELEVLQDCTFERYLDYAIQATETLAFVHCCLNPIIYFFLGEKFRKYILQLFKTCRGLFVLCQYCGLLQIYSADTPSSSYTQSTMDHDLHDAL

[11] = target: C-C chemokine receptor type 6 (Homo sapiens) (UniProt P51684); test: Antagonist activity at CCR6 (unknown origin)
Chain of C-C chemokine receptor type 6 (Homo sapiens) (P51684 whole entry, looked up): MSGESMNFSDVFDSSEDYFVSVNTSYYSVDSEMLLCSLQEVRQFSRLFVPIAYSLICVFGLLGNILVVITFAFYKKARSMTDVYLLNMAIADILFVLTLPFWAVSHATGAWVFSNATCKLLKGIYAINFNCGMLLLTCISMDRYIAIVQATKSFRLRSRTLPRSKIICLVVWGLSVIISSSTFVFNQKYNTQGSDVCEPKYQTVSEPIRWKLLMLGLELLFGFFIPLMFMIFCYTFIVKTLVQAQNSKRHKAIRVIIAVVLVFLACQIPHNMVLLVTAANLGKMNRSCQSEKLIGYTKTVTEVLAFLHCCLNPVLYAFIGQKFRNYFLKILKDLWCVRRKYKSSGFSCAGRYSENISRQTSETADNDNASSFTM

[12] = target: C-C chemokine receptor type 7 (Homo sapiens) (UniProt P32248); test: Antagonist activity at CCR7 (unknown origin)
Chain of C-C chemokine receptor type 7 (Homo sapiens) (P32248 whole entry, looked up): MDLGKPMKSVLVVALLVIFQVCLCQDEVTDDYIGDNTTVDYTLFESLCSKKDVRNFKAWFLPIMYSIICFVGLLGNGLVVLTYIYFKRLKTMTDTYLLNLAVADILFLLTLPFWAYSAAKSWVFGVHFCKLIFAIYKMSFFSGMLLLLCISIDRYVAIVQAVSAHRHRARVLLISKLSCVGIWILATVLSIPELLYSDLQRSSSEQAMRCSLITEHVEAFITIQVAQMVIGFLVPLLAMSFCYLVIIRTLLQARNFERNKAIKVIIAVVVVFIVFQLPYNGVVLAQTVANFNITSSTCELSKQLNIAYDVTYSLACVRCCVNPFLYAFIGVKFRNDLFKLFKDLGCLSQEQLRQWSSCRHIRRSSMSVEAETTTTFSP

[13] = target: T2, C-X-C chemokine receptor type 3; test: Antagonist activity at human CXCR3 assessed as reduction in CXCL11 induced calcium flux by [35S]GTPgammaS binding assay
[14] = Solubility of compound; assay type: physicochemical
[15] = Lipophilicity, logD of compound at pH 7.4; assay type: physicochemical; details: buffer
[16] = target: C-X-C chemokine receptor type 3 (Homo sapiens) (UniProt P49682); test: Inhibition of CXCR3 at 20 to 50 uM relative to control
[17] = AUC in rat at 10 mg/kg, po; assay type: ADME, organism-based; parameters: dose 10 mg/kg, route po; details: in vivo
[18] = target: T2, C-X-C chemokine receptor type 3; test: Displacement of [125I]-CXCL10 from CXCR3 in human PBMC cells by scintillation proximity assay; assay type: cell-based
[19] = AUC in rat at 2 mg/kg, po; assay type: ADME, organism-based; parameters: dose 2 mg/kg, route po; details: in vivo
[20] = target: Voltage-gated inwardly rectifying potassium channel KCNH2 (Homo sapiens, UniProt Q12809); test: Inhibition of hERG; assay type: toxicity
Chain of Voltage-gated inwardly rectifying potassium channel KCNH2 (Q12809 whole entry): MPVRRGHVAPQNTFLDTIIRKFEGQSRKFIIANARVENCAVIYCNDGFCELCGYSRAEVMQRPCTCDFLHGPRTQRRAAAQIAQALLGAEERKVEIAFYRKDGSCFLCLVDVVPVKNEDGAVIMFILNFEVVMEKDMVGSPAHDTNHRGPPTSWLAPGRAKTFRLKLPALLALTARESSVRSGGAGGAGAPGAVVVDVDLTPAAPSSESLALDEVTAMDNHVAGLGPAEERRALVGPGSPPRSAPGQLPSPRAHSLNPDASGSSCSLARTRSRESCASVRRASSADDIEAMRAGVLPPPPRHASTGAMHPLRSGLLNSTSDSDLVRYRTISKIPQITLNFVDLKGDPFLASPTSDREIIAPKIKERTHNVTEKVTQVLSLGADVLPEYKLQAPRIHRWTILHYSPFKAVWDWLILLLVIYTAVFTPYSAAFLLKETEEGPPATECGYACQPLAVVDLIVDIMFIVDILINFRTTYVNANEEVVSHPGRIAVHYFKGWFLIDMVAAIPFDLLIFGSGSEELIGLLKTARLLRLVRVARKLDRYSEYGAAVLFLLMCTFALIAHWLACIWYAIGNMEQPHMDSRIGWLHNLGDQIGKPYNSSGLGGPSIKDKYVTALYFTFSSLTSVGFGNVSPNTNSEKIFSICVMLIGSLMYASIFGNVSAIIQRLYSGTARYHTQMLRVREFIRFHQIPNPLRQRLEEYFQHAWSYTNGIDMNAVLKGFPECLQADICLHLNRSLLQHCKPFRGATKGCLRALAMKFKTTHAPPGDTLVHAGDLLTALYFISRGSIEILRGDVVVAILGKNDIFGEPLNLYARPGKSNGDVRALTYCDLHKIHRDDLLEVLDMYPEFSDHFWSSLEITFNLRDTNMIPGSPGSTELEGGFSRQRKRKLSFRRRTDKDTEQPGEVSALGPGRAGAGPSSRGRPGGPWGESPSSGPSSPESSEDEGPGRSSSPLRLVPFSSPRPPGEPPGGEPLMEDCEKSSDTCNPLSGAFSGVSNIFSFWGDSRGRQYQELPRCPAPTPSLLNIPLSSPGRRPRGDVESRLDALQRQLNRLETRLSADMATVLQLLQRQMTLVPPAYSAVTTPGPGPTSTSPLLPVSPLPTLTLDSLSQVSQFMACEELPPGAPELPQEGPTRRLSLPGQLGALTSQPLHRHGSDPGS

[21] = Intrinsic clearance in mouse liver microsomes; assay type: ADME, Microsome
[22] = target: T2, C-X-C chemokine receptor type 3; test: Antagonist activity at CXCR3 (unknown origin) assessed as reduction in CXCL11 induced calcium flux by flow cytometry
[23] = Clearance in rat at 10 mg/kg, po or 0.2 mg/kg, iv; assay type: ADME, organism-based; details: in vivo
[24] = Volume of distribution in mouse at 10 mg/kg. po or 0.2 mg/kg, iv; assay type: ADME, organism-based; details: in vivo
[25] = Clearance in mouse at 30 mg/kg, po; assay type: ADME, organism-based; details: in vivo
[26] = Oral bioavailability in mouse at 30 mg/kg; assay type: ADME, organism-based; details: in vivo
[27] = target: T1, hERG (KCNH2); test: Inhibition of hERG at 3 uM relative to control; assay type: toxicity
[28] = Half life in rat at 2.0 mg/kg, po or 0.5 mg/kg, iv; assay type: ADME, organism-based; details: in vivo
[29] = target: T4, C-X-C chemokine receptor type 3 (Mus musculus, UniProt O88410); test: […] of CXCR3 receptor internalization in mouse whole blood in presence of CXCl10 by flow cytometry; assay type: tissue-based
T4 sequence (O88410 whole entry): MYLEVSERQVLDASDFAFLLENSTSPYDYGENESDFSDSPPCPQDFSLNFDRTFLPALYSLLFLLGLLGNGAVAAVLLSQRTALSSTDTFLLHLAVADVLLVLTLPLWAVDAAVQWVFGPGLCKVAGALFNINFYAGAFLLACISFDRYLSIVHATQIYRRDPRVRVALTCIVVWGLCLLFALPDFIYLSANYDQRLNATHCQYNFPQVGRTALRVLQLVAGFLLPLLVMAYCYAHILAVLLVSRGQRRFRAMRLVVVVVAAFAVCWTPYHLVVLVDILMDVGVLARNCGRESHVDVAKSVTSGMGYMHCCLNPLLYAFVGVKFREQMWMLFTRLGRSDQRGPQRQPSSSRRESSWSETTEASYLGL

[30] = Oral bioavailability in mouse at 10 mg/kg; assay type: ADME, organism-based; details: in vivo
[31] = Clearance in rat at 10 mg/kg, po or 5 mg/kg, iv; assay type: ADME, organism-based; details: in vivo
[32] = Half life in mouse at 10 mg/kg, po or 5 mg/kg, iv; assay type: ADME, organism-based; details: in vivo

T1 sequence (Q12809 whole entry): as the sequence (Q12809 whole entry) above

CCNc1nnc(-c2cnc(N3C[C@H](CC)N(C4CCN(Cc5ccc(Cl)cc5)CC4)C[C@H]3C)c(C)n2)o1 gave an inhibition at 10 µM [1] of 25%.

For CC[C@H]1CN(c2nc(N)c(C(N)=O)nc2Cl)CCN1C1CCN(Cc2ccc(Cl)cc2)CC1, the Ki [2] was 0.794 nM and the AUC [3] was 5.1 µM·h.

CC[C@H](C)C[C@H](C)C[C@H](C)[C@@H](O[C@@H]1O[C@H](COC(C)=O)[C@@H](O)[C@@H](O)[C@@H]1O)[C@@H](C)/C=C(\C)[C@@H](O)[C@@H](C)/C=C(\C)[C@@H](O)[C@@H](C)/C=C(\C)C(=O)OC[C@@H](O)[C@H](O)[C@H](O)CO showed an IC50 [2] of 15800 nM.

In the case of CC(=O)Nc1cccc(/C(C)=N\NC(=O)c2ccc(CN(Cc3ccccc3)S(=O)(=O)c3ccc(Cl)cc3)cc2)c1, the IC50 [4] is reported as 501 nM, the IC50 [5] is reported as 100 nM and the Ki [6] is reported as 200 nM. For the same molecule, the Ki [7] was 6500 nM.

In the case of Cc1ccc(C(Nc2c(Nc3cccc(C(=O)N(C)C)c3O)c(=O)c2=O)C2(C)CCCO2)o1 (stereo not drawn), the IC50 [8] is reported as 1.26 nM, the IC50 [9] is reported as 63.1 nM and the IC50 [10] is reported as 398 nM. For the same molecule, the IC50 [11] was 2 nM and the IC50 [12] was 7.94 nM.

CC(=O)N1C2C=C(CN3[C@@H]4CC[C@H]3C[C@H](NC(=O)Nc3cc(F)cc(C(F)(F)F)c3)C4)CC1CCC2 gave a Ki [13] of 6.31 nM, a solubility [14] of 40 µg/mL (≈ 78.7 µM) and a logD [15] of 3.1.

With Cc1ccc(C(=O)N2CCN(CC(=O)Nc3cc(-c4ccccc4)sc3C(N)=O)CC2)cc1 the inhibition at 50 µM [16] was 50%.

Work on CCNC(=O)c1cnc(N2CCN(C3CCN(Cc4ccc(Cl)cc4F)CC3)[C@@H](CC)C2)c(Cl)c1 yielded a Ki [2] of 0.316 nM and an AUC [17] of 0.95 µM·h.

Work on CCN(CC)C(=O)[C@@H]1C=C2C3C=CCc4[nH]cc(c43)C[C@H]2N(C(=O)Nc2ccccc2)C1 (stereo partly drawn) yielded an IC50 [6] of 20 nM and an IC50 [2] of 50.1 nM.

Work on CCNC(=O)N1CCCN(c2ccc(C(=O)NC(C)C)cc2NC(=O)c2cccc(Cl)c2)CC1 yielded an IC50 [6] of 2000 nM.

Molecule COc1cc(CN(C[C@H]2CC[C@H](C(=O)O)CC2)[C@H]2CCc3cc(Cl)ccc32)ccc1OCCN1C(=O)CCC1=O has an IC50 [2] of 12.6 nM.

Molecule C[C@H](c1nc2ncccc2c(=O)n1-c1ccc(Cl)cc1)N(CC1CCS(=O)(=O)CC1)C(=O)Cc1ccc(C(F)(F)F)c(F)c1 has an IC50 [18] of 6.31 nM.

CCCCCCCCCC(=O)N(CCN(C)C)C(C)c1nc2ccccc2c(=O)n1-c1ccc(F)cc1 (stereo not drawn) gave an IC50 [6] of 398 nM.

With O=C(Nc1ccccc1)N1CCCC(c2ccccc2)(C2CCN(Cc3ccc(Br)cc3)CC2)C1 (stereo not drawn) the IC50 [5] was 31.6 nM.

Work on CNc1ncc(-c2cc(C(F)(F)F)ccc2N2CCN(C(=O)Cn3nc(C)cc3C)CC2)cn1 yielded an AUC [19] of 271 ng·h/mL.

O=C(Cn1c(=O)[nH]c2ccccc21)N1CCN(c2ncc(Cl)cc2-c2cnc(N3CCC(O)CC3)nc2)CC1 showed an IC50 [20] of 31600 nM.

With CC1(C)[C@H]2CC=C(CN3CCC(Nc4nc(-c5cc(C(F)(F)F)cc(C(F)(F)F)c5)ns4)CC3)[C@@H]1C2 the Ki [13] was 251 nM, the logD [15] was 5 and the CLH [21] was 0.016 mL/min/kg.

Work on CC(=O)c1nc2ccccc2n1CC(=O)c1ccc([N+](=O)[O-])cc1 yielded an IC50 [2] of 3160 nM.

In the case of N=C(Nc1ccc(I)cc1)NC1C2CC3CC(C2)CC1C3 (stereo not drawn), the Ki [2] is reported as 158 nM.

In the case of CCNC(=O)N1CCCN(c2ccc(C(=O)NCCc3ccc(Cl)cc3Cl)cc2NC(=O)c2cccc(Cl)c2)CC1, the pIC50 [22] is reported as 7 and the IC50 [6] is reported as 63.1 nM.

Work on N#Cc1ccc(S(=O)(=O)N(Cc2ccc(-c3nnn[nH]3)c(F)c2)Cc2ccccc2F)cc1 yielded an IC50 [4] of 200 nM, a clearance [23] of 28.3 mL/min/kg and a Vd [24] of 1 L/kg.

For CC(=O)N1C2C=C(CN3[C@@H]4CC[C@H]3C[C@H](Nc3ccc5ccc(OC(C)C)cc5n3)C4)CC1CCC2, the logD [15] was 2.9, the CLint [21] was 9 µL/min/mg and the CL/F [25] was 9 mL/min/kg. It also gave a bioavailability [26] of 69%.

For CC[C@H]1CN(c2ncc(C(N)=O)nc2C)CCN1C1CCN(Cc2ccc(Cl)nc2N)CC1, the inhibition at 3 µM [27] was 0%.

Molecule C[C@H](c1nc2ncccc2c(=O)n1-c1ccc(Cl)cc1)N(CC1CCS(=O)(=O)CC1)C(=O)Cc1ccc(F)c(C(F)(F)F)c1 has an IC50 [18] of 6.31 nM, an IC50 [6] of 5.01 nM and a half-life [28] of 4 h.

With C[C@@H]1CC[C@@]2(OC1)OC1CC3C4CC=C5[C@@H](O[C@@H]6O[C@H](CO)[C@@H](O[C@H]7O[C@H](C)[C@@H](O)[C@H](O)[C@@H]7O)[C@@H](O)[C@H]6O[C@H]6O[C@@H](C)[C@@H](O)[C@H](O)[C@@H]6O)CCC[C@]5(C)C4CC[C@]3(C)C1[C@@H]2C (stereo partly drawn) the IC50 [2] was 501 nM.

Molecule C[C@H]1CN(c2scnc2-c2nc3ccccc3[nH]2)CCN1C(=O)Cn1ccc2cccnc21 has an IC50 [29] of 398 nM.

Molecule O=C(Nc1ccc2ccccc2c1)NC1CCN(CC2=CCCCCC2)CC1 has a Ki [13] of 100 nM.

Cc1cccc2c1n(C)c(=N)n2CC(=O)c1ccc(Cl)cc1 gave a bioavailability [30] of 57%, a clearance [31] of 95 mL/min/kg and a half-life [32] of 4.9 h.

For N#Cc1ccc(CN2CCC(N3CCN(c4ncc(C(=O)NCCOc5ccccc5)cc4Cl)CC3)CC2)cc1, the Ki [2] was 100 nM.
